The source made the active and inactive calls. The rule behind the calls is not given here.

One test addresses T1, Interleukin-8 receptors, CXCR1/CXCR2 (Homo sapiens, UniProt P25025+P25024).
T1 sequence (P25025 whole entry): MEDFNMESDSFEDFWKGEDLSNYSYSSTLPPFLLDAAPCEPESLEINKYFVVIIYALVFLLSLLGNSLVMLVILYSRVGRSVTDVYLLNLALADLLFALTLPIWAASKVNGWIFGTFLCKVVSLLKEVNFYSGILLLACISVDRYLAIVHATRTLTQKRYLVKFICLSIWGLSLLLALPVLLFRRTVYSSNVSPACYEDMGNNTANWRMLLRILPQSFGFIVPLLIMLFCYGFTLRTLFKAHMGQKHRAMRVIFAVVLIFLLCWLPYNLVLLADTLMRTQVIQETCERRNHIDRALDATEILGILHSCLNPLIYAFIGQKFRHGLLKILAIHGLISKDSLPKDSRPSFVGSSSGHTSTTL
T1 sequence (P25024 whole entry): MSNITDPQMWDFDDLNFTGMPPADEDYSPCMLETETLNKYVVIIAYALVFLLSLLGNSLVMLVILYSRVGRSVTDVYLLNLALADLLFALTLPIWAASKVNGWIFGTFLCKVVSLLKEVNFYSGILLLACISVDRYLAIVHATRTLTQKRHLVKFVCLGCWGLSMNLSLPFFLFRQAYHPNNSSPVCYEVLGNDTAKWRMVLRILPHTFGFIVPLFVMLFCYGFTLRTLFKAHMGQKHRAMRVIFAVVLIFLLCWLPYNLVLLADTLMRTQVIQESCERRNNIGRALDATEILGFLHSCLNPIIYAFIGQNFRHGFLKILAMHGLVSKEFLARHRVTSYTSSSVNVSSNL
The test is described as follows: Inhibition of CXCL8-induced chemotaxis in human polymorphonuclear cells. The class given is functional.
The compound `CONC(=O)[C@H](C)c1ccc(CC(C)C)cc1` returned an IC50 of 1.8 nM. This counts as single-digit nanomolar.

For another test, the target named is T2, Interleukin-8 receptors, CXCR1/CXCR2 (Homo sapiens) (UniProt P25025+P25024). The test is described as follows: Inhibition of CXCL8-induced chemotaxis of human polymorphonuclear cells at 10e-6 M: not active. The class given is functional.
`CC(C(=O)NS(C)(=O)=O)c1ccc2c(c1)[nH]c1ccc(Cl)cc12` (centres undefined): the inhibition result is “inactive”.

The next test addresses T2, Interleukin-8 receptors, CXCR1/CXCR2 (Homo sapiens). The test is described as follows: Inhibition of CXCL8-induced chemotaxis of human polymorphonuclear cells at 10e-8 M: not active. The class given is functional.
As to `CC(C)Cc1ccc([C@@H](C)C(=O)NCCCC(=O)O)cc1`, the inhibition result is “inactive”.

Take `CC(C(=O)O)c1ccc(C(C)(C)C)cc1` (centres undefined): the inhibition entry is “inactive”.

Regarding `CC(C)Cc1ccc([C@@H](C)C(=O)NC(C)C(=O)O)cc1` (single isomer, unassigned), the inhibition result is “inactive”.

Turning to `CC(C(=O)O)c1cccc(C(=O)O)c1` (centres undefined), the inhibition entry is “inactive”.

Regarding `CC(C(=O)O)c1ccc(-c2ccccc2)cc1` (centres undefined), the inhibition entry was “inactive”.

Consider `CC(C)Cc1ccc([C@@H](C)C(=O)NS(=O)(=O)CCCN)cc1`, for which the inhibition result was “inactive”.

On to `CC(C)Cc1ccc([C@@H](C)C(=O)NCCCCCO)cc1`, for which the inhibition entry is “inactive”.

With `CC(C(=O)O)c1ccc(-c2cccs2)cc1` (centres undefined), the inhibition entry is “inactive”.

In the case of `COC(=O)[C@@H](C)NC(=O)[C@H](C)c1ccc(CC(C)C)cc1`, the inhibition result is “inactive”.

On to `CC(C)Cc1ccc([C@@H](C)C(=O)NS(=O)(=O)c2ccccc2)cc1`, for which the inhibition entry was “inactive”.

Turning to `CC(C)Cc1ccc([C@@H](C)C(=O)NC2CCN(C)C2)cc1` (some centres undefined), the inhibition result is “inactive”.

With `CC(C(=O)O)c1ccc(CC2CCCCC2)cc1` (centres undefined), the inhibition entry was “inactive”.

`CC(C)Cc1ccc([C@@H](C)C(=O)NC2CCOC2)cc1` (some centres undefined): the inhibition entry is “inactive”.

As for `CC(C)Cc1ccc([C@@H](C)C(=O)N2CCCCC2)cc1`, the inhibition result was “inactive”.

For `CC(C(=O)O)c1ccc(O)cc1` (centres undefined), the inhibition result is “inactive”.

Turning to `CC(C)Cc1ccc([C@@H](C)C(=O)NS(=O)(=O)CCCN2C(=O)c3ccccc3C2=O)cc1`, the inhibition entry was “inactive”.

`COC(=O)CNC(=O)[C@H](C)c1ccc(CC(C)C)cc1`: the inhibition result is “inactive”.

Consider `CC(C)Cc1ccc([C@@H](C)C(=O)NS(=O)(=O)Cc2ccc(Cl)cc2)cc1`, for which the inhibition entry is “inactive”.

As to `CC(C)Cc1cccc(C(C)C(=O)O)c1` (centres undefined), the inhibition result was “inactive”.

`CCCCc1cccc(C(C)C(=O)O)c1` (centres undefined): the inhibition result was “inactive”.

Regarding `CC(C)Cc1ccc([C@@H](C)C(=O)NCCC(=O)O)cc1`, the inhibition result is “inactive”.

On to `CC(C)Cc1ccc([C@@H](C)C(=O)N(C)C)cc1`, for which the inhibition result is “inactive”.

On to `CC(C)Cc1ccc([C@@H](C)C(=O)NS(=O)(=O)Cc2cccnc2)cc1`, for which the inhibition entry is “inactive”.

Take `C/C=C/c1cccc(C(C)C(=O)O)c1` (centres undefined): the inhibition entry is “inactive”.

On to `CC(=O)c1cccc(C(C)C(=O)O)c1` (centres undefined), for which the inhibition entry is “inactive”.

With `COC(=O)C(C)c1ccc(CC(C)C)cc1` (centres undefined), the inhibition result was “inactive”.

On to `CC(C)Cc1ccc([C@@H](C)C(=O)NC2CCOCC2)cc1`, for which the inhibition entry is “inactive”.

On to `CC(C)Cc1ccc([C@@H](C)C(=O)NS(=O)(=O)C(F)(F)F)cc1`, for which the inhibition entry is “inactive”.

Regarding `CC(C)Cc1ccc([C@@H](C)C(=O)NCCCN)cc1`, the inhibition result is “inactive”.

With `CC(C)Cc1ccc([C@@H](C)C(=O)NCCC[N+](C)(C)C)cc1`, the inhibition result was “inactive”.

For `CC(C(=O)O)c1ccc(Cc2ccccc2)cc1` (centres undefined), the inhibition result is “inactive”.

For `CC(C)Cc1ccc([C@@H](C)C(=O)N[C@H](CS)C(=O)O)cc1`, the inhibition result was “inactive”.

For the next test the target is unchanged. The test is described as follows: Inhibition of interleukin-8 induced chemotaxis of human polymorphonuclear cells at 10 nM.
Take `C[C@H](C(=O)NS(C)(=O)=O)c1ccc(-c2ccccc2)c(F)c1`: the inhibition was 19%.

Compound `C[C@@H](C(=O)NS(C)(=O)=O)c1ccc(-c2ccccc2)c(F)c1` showed an inhibition of 30%.

Take `CCS(=O)(=O)NC(=O)[C@H](C)c1ccc(CC(C)C)cc1`: the inhibition turned out to be 40%.

In turn, `CCNC(=O)[C@H](C)c1ccc(CC(C)C)cc1` came in with an inhibition of 26%.

`CC(C)c1ccc(C(C)C(=O)O)cc1` (centres undefined) showed an inhibition of 32%.

`CNC(=O)[C@H](C)c1ccc(CC(C)C)cc1` returned an inhibition of 40%.

For the compound `CC(C(=O)O)c1cccc(Cc2ccccc2)c1` (centres undefined), the inhibition amounted to 30%.

For `CCC(C)c1cccc(C(C)C(=O)O)c1` (centres undefined), the inhibition came out at 50%.

As to `CC(C)Oc1ccc(C(C)C(=O)O)cc1` (centres undefined), the inhibition is 38%.

In turn, `CC(C)Cc1ccc([C@@H](C)C(=O)Nc2ccccc2)cc1` registered an inhibition of 30%.

Broadly, the IC50 is the point on the concentration scale where inhibition reaches its midpoint. Broadly, the inhibition is the percentage by which the read-out fell short of the control.

The record behind these values is ChEMBL document CHEMBL1145151, “2-Arylpropionic CXC chemokine receptor 1 (CXCR1) ligands as novel noncompetitive CXCL8 inhibitors” (J Med Chem, 2005).
